In paper PMC11267548 (JACS Au, 2024):

Target: T1, ScGPUT (Solitalea canadensis, UniProt H8KMA8)
T1 sequence (H8KMA8 1-293): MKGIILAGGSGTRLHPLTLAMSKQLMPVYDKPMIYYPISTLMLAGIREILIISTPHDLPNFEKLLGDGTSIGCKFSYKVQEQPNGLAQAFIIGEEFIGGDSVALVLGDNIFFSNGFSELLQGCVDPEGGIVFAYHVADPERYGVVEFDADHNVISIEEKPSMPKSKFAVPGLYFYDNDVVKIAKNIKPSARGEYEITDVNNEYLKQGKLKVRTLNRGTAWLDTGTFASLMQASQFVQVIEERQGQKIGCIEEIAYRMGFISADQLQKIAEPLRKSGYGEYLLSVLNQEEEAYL
Assay: conversion of xylose-1-phosphate to UDP-xylose, TLC
Format: biochemical
Settings: read-out: % inhibition at 10 mM

SMILES: Nc1ncnc2c1ncn2[C@@H]1O[C@H](COP(=O)(O)OP(=O)(O)O)[C@@H](O)[C@H]1O [ADP]
- inhibition at 10000 µM: > 50%

SMILES: Nc1ncnc2c1ncn2[C@@H]1O[C@H](COP(=O)(O)OP(=O)(O)OP(=O)(O)O)[C@@H](O)[C@H]1O [ATP]
- inhibition at 10000 µM: > 50%
